Results from patent US20240041830A1, “CIRCULATING BIOMARKERS OF RESPONSE TO PD-1/PD-L1 BLOCKADE AND GSK-3 INHIBITION” (Brown University, priority 2022, published 2024).

Experiments:
[1] = tested on: HCT-116; experiment: microarray analysis; assay type: cell-based, human; details: HCT-116 by context; 24 hours vs untreated
Protocol: Microarrays. A total of 0.5×10^6 tumor cells (HCT-116, HT-29, KM12C) were plated in a 6-well plate and allowed to adhere overnight before 24-hour treatment, as indicated. Then, 1×10^6 immune cells (NK92, TALL-104) were plated and treated with elraglusib as indicated for twenty-four h. RNA was isolated from cell pellets in batches of six using a RNeasy Plus Mini Kit (Cat #74134, Qiagen, Hilden, Germany). Acceptable RNA concentration and quality were verified with Nanodrop and Bioanalyzer measurements. GeneChip™ Human Transcriptome Array 2.0 assays were conducted according to manufacturer instructions in two batches using randomized samples to limit batch effects (Cat #902162, Applied Biosystems, Waltham, MA, USA). Applied Biosystems Transcriptomic Analysis Console (TAC) software (RRID: SCR_016519) was used to calculate fold changes in gene expression relative to the untreated control cells. Values were considered statistically significant for p values<0.05.
The inventors then utilized microarray analysis to gain insights into gene expression changes in colorectal cancer cell lines post-GSK-3 inhibition with elraglusib. Several colorectal cancer cell lines (HCT-116, HT-29, KM12C) were treated with elraglusib at IC-50 concentrations or DMSO as vehicle control for twenty-four hours. Treated versus untreated samples were compared in triplicate using microarray analysis FIG. 10. Results were calculated using a fold change (FC) cutoff of >1.5, <−1.5, and a minimum p-value of<0.05. HCT-116 cells had 340 differentially expressed genes post-treatment. FIG. 2C.

[2] = tested on: HT-29; experiment: Western blot analysis; assay type: cell-based, human
Protocol: (§1) Pyroptosis assay. Recombinant Human TNF-α (Cat #300-01A, PeproTech, Rocky Hill, NJ, USA) and Recombinant Human IFN-γ (Cat #300-02, PeproTech, Rocky Hill, NJ, USA) were purchased for use in western blot analysis while rhTRAIL was generated in-house. See Kim et al., J. Biol. Chem., 279, 40044-40052 (2004).
(§2) Western blot analysis. Cells were plated in a 6-well plate and incubated overnight before the spent media was replaced with drugged media. Drug treatment lasted for indicated durations. Protein was extracted using radioimmunoprecipitation (RIPA) assay buffer (Cat #R0278, Sigma-Aldrich, St. Louis, MO, USA) containing cOmplete™, Mini, EDTA-free Protease Inhibitor Cocktail (Cat #4693159001, Roche, Basel, Switzerland) from sub-confluent cells. Denaturing sample buffer was added, samples were boiled at 95° C. for ten minutes, and an equal amount of protein lysate was electrophoresed through NuPAGE™ 4 to 12%, bis-Tris, 1.5 mm, Mini Protein Gels (Invitrogen, Waltham, MA, USA) then transferred to PVDF membranes. The PVDF membrane was blocked with 5% non-fat milk (Sigma-Aldrich, St. Louis, MO, USA) in 1× TTBS. Primary antibodies were incubated with the transferred PVDF membrane in blocking buffer at 4° C. overnight. Secondary antibodies included Goat anti-Rabbit IgG (H+L) Secondary Antibody, HRP (Cat #31460, Invitrogen, Waltham, MA, USA), and Goat anti-Mouse IgG (H+L) Secondary Antibody, HRP (Cat #31430, Invitrogen, Waltham, MA, USA). The signal was detected using Pierce™ ECL Western Blotting Substrate (Cat #32106, Thermo Scientific, Waltham, MA, USA) and a Syngene Imaging System (RRID: SCR_015770).
(§3) Elraglusib uprequlates tumor cell PD-L1 and proapoptotic pathway expression as well as downregulates immunosuppressive/angiogenic protein expression and pro-survival pathways. The inventors performed Western blot analyses on colorectal cancer cells (HCT-116, HT-29) treated with elraglusib over a 72-hour time course. […] The inventors observed increases in PD-L1 expression as the treatment duration increased. To further elucidate the elraglusib-mediated effects on tumor cell survival, the inventors probed for survival factors Bcl-2 and Survivin and noted decreases in protein expression in both cell lines, especially at the later timepoints (forty-eight hours, seventy-two hours). […] HCT116 cells are heterozygous for β-catenin, harboring one wild-type allele and one mutant allele with inactivation of one of the residues phosphorylated by GSK-3β that is frequently mutated in tumors. Kaler, Augenlicht, & Klampfer, PLoS ONE, 7, e45462 (2012). HT-29, KM12C, and SW480 cells harbor APC mutations. Rowan et al., Proc. Natl. Acad. Sci. USA, 97, 3352 (2000).

[3] = tested on: HCT-116; experiment: Western blot analysis; assay type: cell-based, human
Protocol: as §1, §2, §3

[4] = tested on: refractory solid tumors of multiple tissue origins; experiment: Phase 1 clinical trial (NCT03678883), survival; assay type: in vivo, human
Protocol: Clinical specimens. Archival tumor specimens and peripheral blood samples were collected from patients enrolled in the Phase I study of elraglusib (Clinicaltrials.gov NCT03678883) who received treatment at the Lifespan Cancer Institute (Providence, RI, USA). The analysis was conducted in accordance with the Declaration of Helsinki and the International Conference on Harmonization Good Clinical
Patient plasma concentrations of cytokines from a Phase 1 clinical trial investigating elraglusib correlate with progression-free survival, overall survival, and in vivo response to therapy results. To determine the clinical relevance of the biomarkers of response identified in our murine model, the inventors next employed Luminex 200 technology to analyze plasma samples from patients with refractory solid tumors of multiple tissue origins enrolled in a Phase 1 clinical trial investigating elraglusib (NCT03678883).
TABLE 14 description. Individual patient information for human cytokine analysis. Tumor type, elraglusib dose (mg, mg/kg), number of cycles, age at enrollment, sex, race, ethnicity, median progression free survival and median overall survival data is shown (N=19).

[5] = as treatment duration increased
[6] = especially forty-eight, seventy-two hours
[7] = low dose, until the 48-hour timepoint
[8] = N=19 patients, multiple tumor types
[9] = Subject 05003, Colorectal, 1 mg/kg
[10] = Subject 05005, Colorectal, 1 mg/kg, 2 cycles

For Cn1cc(C2=C(c3coc4ccc(F)cc34)C(=O)NC2=O)c2cc3c(cc21)OCO3 [elraglusib], the CMTM4 fold change [1] was −1.84, the NEK2 fold change [1] was −2.21 and the PPP1R1C fold change [1] was 1.78. For the same molecule, the “NF-κB p65 expression” value ([2]; 72-hour time course) was “decreased expression”, the PD-L1 expression [2, 5] was “increases” and the Bcl-2 protein expression [2, 6] was “decreases”. The Survivin protein expression [2, 6] was “decreases”, the “cleaved PARP (cPARP)” value [2, 7] was “little to no cleaved PARP” and the “NF-κB p65 expression” value ([3]; 72-hour time course) was “decreased expression”. For the same molecule, the PD-L1 expression [3, 5] was “increases”, the Mcl-1 protein expression ([3]; by the 24-hour timepoint) was “marked decreases” and the Bcl-2 protein expression [3, 6] was “decreases”. For the same molecule, the Survivin protein expression [3, 6] was “decreases”, the “cleaved PARP (cPARP)” value [3, 7] was “little to no cleaved PARP” and the median overall survival [4, 8] was 101 days. The median progression-free survival [4, 8] was 75.9 days, the “OS” value [4, 9] was 26 days and the “PFS” value [4, 9] was 26 days. The “PFS” value ([4]; Subject 05004, Colorectal, 1 mg/kg) was 28 days, the “OS” value [4, 10] was 105 days and the “PFS” value [4, 10] was 99 days. For the same molecule, the “OS” value ([4]; Subject 05006, HCC, 2 mg/kg) was 234 days, the “PFS” value ([4]; Subject 05006, HCC, 2 mg/kg) was 234 days and the “PFS” value ([4]; Subject 05009, Cholangiocarcinoma, 2 mg/kg) was 46 days. For the same molecule, the “OS” value ([4]; Subject 05011, NSCLC, 2 mg/kg) was 39 days, the “PFS” value ([4]; Subject 05011, NSCLC, 2 mg/kg) was 31 days and the “PFS” value ([4]; Subject 05013, Colorectal, 3.3 mg/kg) was 130 days. For the same molecule, the “PFS” value ([4]; Subject 05017, Colorectal, 5 mg/kg) was 83 days, the “PFS” value ([4]; Subject 05018, NSCLC, 5 mg/kg) was 41 days and the “PFS” value ([4]; Subject 05024, Appendix, 7 mg/kg) was 41 days.
